US8415486B2, “IAP inhibitors” (TetraLogic Pharmaceuticals Corp., priority 2009, dated 2013)

Key:
XIAP BIR-3 = target: T1, XIAP BIR-3 (Homo sapiens, UniProt P98170); test: Fluorescence polarization binding to XIAP BIR-3 with labeled peptide AbuRPF-K(5-Fam)-NH2; conditions: 40 nM BIR3, 5 nM labeled peptide, reported as ranges
T1 construct: 40 nM of the respective IAP BIR3
Method: (§1) The binding affinities of the compounds are reported as a KD value (μM). Briefly, various concentrations of test peptides were mixed with 5 nM of the fluorescently labeled peptide (i.e., a mutated N-terminal Smac peptide—AbuRPF-K(5-Fam)-NH2) and 40 nM of the respective IAP BIR3 for 15 min at RT in […] of 0.1M Potassium Phosphate buffer, pH 7.5 containing 100 mg/ml bovine g-globulin. Following incubation, the polarization values (mP) were measured on a Victor2V (available from PerkinElmer Life Sciences) using a 485 nm excitation filter and a 520 nm emission filter. The reported binding affinities (KD values) are supplied as ranges (A=<0.1 μM, B=0.1 μM to 1 μM, C=>1 μM to 10 μM, D=>10 μM).

[1] = test system: ovarian cancer cell line, SK-OV-3; test: SK-OV-3 cell growth inhibition (MTT, 72 hrs); format: cell-based; conditions: Homo sapiens, concentration giving 50% cell survival, reported as ranges
Method: Compounds of the invention also were tested for their ability to inhibit the growth of an ovarian cancer cell line, SK-OV-3. A known assay previously used for measuring cell growth (as described in Hansen, M. B., Nielsen, S. E., and Berg, K. (1989) J. Immunol. Methods 119, 203-210 and incorporated herein by reference in its entirety) was used. Briefly, SK-OV-3 cells are seeded in 96-well plates in McCoy's medium containing 10% fetal bovine serum albumin (5,000 per well) and incubated overnight at 37° C. The next day, test compounds are added at various concentrations (0.003-10 μM) and the plates are incubated at 37° C. for an additional 72 hrs. This incubation time was considered to be optimal for measuring inhibitory effects of the different compounds tested. 50 microliters of 5 mg/mL MTT reagent is added to each well and the plates are incubated at 37° C. for another three (3) hours. At the end of the three (3) hour incubation period, 50 microliters of DMSO is added to each well to dissolve cells and the optical density (OD) of the wells is measured with a microplate reader (Victor^2 1420, Wallac, Finland) at 535 nm. Cell survival (CS) was calculated using the following equation: CS=(OD treated well/mean OD control wells)×100%.
The CC50 (reported in the following tables), is defined as the drug concentration that results in 50% cell survival (CS), and is derived by calculating the point where the dose-response curve crosses the 50% CS point using GraphPad Prism. The reported CC50 values are supplied as ranges (A=<0.1 μM, B=0.1 μM to 1 μM, C=>1 μM to 10 μM, D=>10 μM).

cIAP-1 BIR-3 = target: T2, cIAP-1 BIR-3 (Homo sapiens, UniProt Q13490); test: Fluorescence polarization binding to cIAP-1 BIR-3 with labeled peptide AbuRPF-K(5-Fam)-NH2; conditions: 40 nM BIR3, 5 nM labeled peptide, reported as ranges, read-out: KD (c-IAP-1 BIR3)
T2 construct: 40 nM of the respective IAP BIR3
Method: as §1

T1 sequence (P98170 241-356 limits assumed): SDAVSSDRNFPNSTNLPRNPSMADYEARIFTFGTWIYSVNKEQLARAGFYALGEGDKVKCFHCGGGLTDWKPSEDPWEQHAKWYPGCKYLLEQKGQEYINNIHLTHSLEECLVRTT
T2 sequence (Q13490 253-363 limits assumed): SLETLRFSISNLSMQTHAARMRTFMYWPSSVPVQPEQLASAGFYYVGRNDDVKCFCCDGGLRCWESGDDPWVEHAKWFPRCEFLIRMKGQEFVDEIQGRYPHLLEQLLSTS

| Structure (SMILES) | Kd (XIAP BIR-3) [µM] | CC50 [1] [µM] | Kd (cIAP-1 BIR-3) [µM] |
| --- | --- | --- | --- |
| CN[C@@H](CF)C(=O)N[C@H](C(=O)N1CC[C@H]2NC[C@H](OCc3ccccc3)[C@H]21)C1CCCCC1 [Example 33, N-[2-(6-Benzyloxy-hexahydro-pyrrolo[3,2-b]pyrrol-1-yl)-1-cyclohexyl-2-oxo-ethyl]-3-fluoro-2-methylamino-propionamide] | 0.1 to 1 | > 10 | < 0.1 |
| CN[C@@H](C)C(=O)N[C@H](C(=O)N1CC[C@@H]2[C@H]1[C@@H](OCc1ccc(F)cc1)CN2S(=O)(=O)CC(C)C)C(C)(C)C [Example 38, N-{1-[6-(4-Fluoro-benzyloxy)-4-(2-methyl-propane-1-sulfonyl)-hexahydro-pyrrolo[3,2-b]pyrrole-1-carbonyl]-2,2-dimethyl-propyl}-2-methylamino-propionamide] | < 0.1 | < 0.1 | < 0.1 |
| CN[C@@H](C)C(=O)N[C@H](C(=O)N1CC[C@H]2NC[C@H](COc3ccc(F)c(F)c3)[C@H]21)C(C)(C)C [Example 64, N-{1-[6-(3,4-Difluoro-phenoxymethyl)-hexahydro-pyrrolo[3,2-b]pyrrole-1-carbonyl]-2,2-dimethyl-propyl}-2-methylamino propionamide] | < 0.1 | < 0.1 | < 0.1 |
| CN[C@@H](C)C(=O)N[C@H](C(=O)N1CC[C@@H]2[C@H]1[C@@H](Oc1ccccc1)CN2C(=O)OC(C)(C)C)C(C)C [Example 1, 4-[3-Methyl-2-(2-methylamino-propionylamino)-butyryl]-3-phenoxy-hexahydro-pyrrolo[3,2-b]pyrrole-1-carboxylic acid tert-butyl ester] | 0.1 to 1 | < 0.1 | < 0.1 |
| CN[C@@H](C)C(=O)N[C@H](C(=O)N1CC[C@H]2NC[C@H](OCc3ccccc3)[C@H]21)C1CCCCC1 [Example 31, (S)—N—((S)-2-((3aR,6S,6aS)-6-(benzyloxy)hexahydropyrrolo[3,2-b]pyrrol-1(2H)-yl)-1-cyclohexyl-2-oxoethyl)-2-(methylamino)propanamide] | 0.1 to 1 | 0.1 to 1 | < 0.1 |
| CN[C@@H](C)C(=O)N[C@H](C(=O)N1CC[C@@H]2[C@H]1[C@@H](Oc1ccc(F)c(F)c1)CN2C(=O)NC(C)C)C(C)(C)C [Example 24, 3-(3,4-Difluoro-phenoxy)-4-[3,3-dimethyl-2-(2-methylamino-propionylamino)-butyryl]-hexahydro-pyrrolo[3,2-b]pyrrole-1-carboxylic acid isopropylamide] | < 0.1 | < 0.1 | < 0.1 |
| CN[C@@H](C)C(=O)N[C@H](C(=O)N1CC[C@@H]2[C@H]1[C@@H](OC(=O)N(c1ccccc1)c1ccccc1)CN2C(=O)NC(C)C)C(C)(C)C [Example 48, Diphenyl-carbamic acid 4-[3,3-dimethyl-2-(2-methylamino-propionylamino)-butyryl]-1-isopropylcarbamoyl-octahydro-pyrrolo[3,2-b]pyrrol-3-yl ester] | 0.1 to 1 | 0.1 to 1 | < 0.1 |
| CN[C@@H](C)C(=O)N[C@H](C(=O)N1CC[C@H]2NC[C@H](Oc3ccccc3-c3ccccc3)[C@H]21)C1CCCCC1 [Example 4, N-{2-[6-(Biphenyl-2-yloxy)-hexahydro-pyrrolo[3,2-b]pyrrol-1-yl]-1-cyclohexyl-2-oxo-ethyl}-2-methylamino-propionamide] | 0.1 to 1 | 0.1 to 1 | < 0.1 |
| CN[C@@H](C)C(=O)N[C@H](C(=O)N1CC[C@@H]2[C@H]1[C@@H](OCc1ccc(F)cc1)CN2C(=O)NC(C)C)C(C)(C)C [Example 37, 4-[3,3-Dimethyl-2-(2-methylamino-propionylamino)-butyryl]-3-(4-fluoro-benzyloxy)-hexahydro-pyrrolo[3,2-b]pyrrole-1-carboxylic acid isopropylamide] | < 0.1 | < 0.1 | < 0.1 |
| CN[C@@H](C)C(=O)N[C@H](C(=O)N1CC[C@@H]2[C@H]1[C@@H](Oc1ccc(F)c(F)c1)CN2S(=O)(=O)CC(C)C)C(C)(C)C [Example 20, N-{1-[6-(3,4-Difluoro-phenoxy)-4-(2-methyl-propane-1-sulfonyl)-hexahydro-pyrrolo[3,2-b]pyrrole-1-carbonyl]-2,2-dimethyl-propyl}-2-methylamino-propionamide] | < 0.1 | < 0.1 | < 0.1 |
| CN[C@@H](C)C(=O)N[C@H](C(=O)N1CC[C@@H]2[C@H]1[C@@H](Oc1ccc(F)c(F)c1)CN2S(C)(=O)=O)[C@@H](C)OC [Example 14, N-{1-[6-(3,4-Difluoro-phenoxy)-4-methanesulfonyl-hexahydro-pyrrolo[3,2-b]pyrrole-1-carbonyl]-2-methoxy-propyl}-2-methylamino-propionamide] | < 0.1 | < 0.1 | < 0.1 |
| CN[C@@H](C)C(=O)N[C@H](C(=O)N1CC[C@@H]2[C@H]1[C@@H](Oc1ccc(F)c(F)c1)CN2S(C)(=O)=O)C1CCCCC1 [Example 13, N-{1-Cyclohexyl-2-[6-(3,4-difluoro-phenoxy)-4-methanesulfonyl-hexahydro-pyrrolo[3,2-b]pyrrol-1-yl]-2-oxo-ethyl}-2-methylamino-propionamide] | < 0.1 | < 0.1 | < 0.1 |
| CNC(=O)N1C[C@H](Oc2ccc(F)cc2)[C@@H]2[C@H]1CCN2C(=O)[C@@H](NC(=O)[C@H](C)NC)C1CCCCC1 [Example 26, 4-[2-Cyclohexyl-2-(2-methylamino-propionylamino)-acetyl]-3-(4-fluoro-phenoxy)-hexahydro-pyrrolo[3,2-b]pyrrole-1-carboxylic acid methylamide] | < 0.1 | < 0.1 | < 0.1 |
| CN[C@@H](C)C(=O)N[C@H](C(=O)N1CC[C@@H]2[C@H]1[C@@H](Oc1ccc(F)c(F)c1)CN2C1CCCC1)C(C)(C)C [Example 17, N-{1-[4-Cyclopentyl-6-(3,4-difluoro-phenoxy)-hexahydro-pyrrolo[3,2-b]pyrrole-1-carbonyl]-2,2-dimethyl-propyl}-2-methylamino-propionamide] | 0.1 to 1 | < 0.1 | < 0.1 |
| CCNC(=O)O[C@H]1CN(C(=O)NC(C)C)[C@@H]2CCN(C(=O)[C@@H](NC(=O)[C@H](C)NC)C(C)(C)C)[C@H]12 [Example 52, Ethyl-carbamic acid 4-[3,3-dimethyl-2-(2-methylamino-propionylamino)-butyryl]-1-isopropylcarbamoyl-octahydro-pyrrolo[3,2-b]pyrrol-3-yl ester] | 1 to 10 | 1 to 10 | < 0.1 |
| CN[C@@H](C)C(=O)N[C@H](C(=O)N1CC[C@@H]2[C@H]1[C@@H](COc1ccc(F)c(F)c1)CN2C(=O)C(C)=O)C(C)(C)C [Example 66, N-{1-[6-(3,4-Difluoro-phenoxymethyl)-4-(2-oxo-propionyl)-hexahydro-pyrrolo[3,2-b]pyrrole-1-carbonyl]-2,2-dimethyl-propyl}-2-methylamino propionamide] | < 0.1 | < 0.1 | < 0.1 |
| CN[C@@H](C)C(=O)N[C@H](C(=O)N1CC[C@@H]2[C@H]1[C@@H](OC(=O)N1CCCC1)CN2C(=O)NC(C)C)C(C)(C)C [Example 58, Pyrrolidine-1-carboxylic acid 4-[3,3-dimethyl-2-(2-methylamino-propionylamino)-butyryl]-1-isopropylcarbamoyl-octahydro-pyrrolo[3,2-b]pyrrol-3-yl ester] | 1 to 10 | 1 to 10 | 0.1 to 1 |
| CN[C@@H](C)C(=O)N[C@H](C(=O)N1CC[C@H]2NC[C@H](Oc3cccc4c3CCCC4)[C@H]21)C1CCCCC1 [Example 5, N-{1-Cyclohexyl-2-oxo-2-[6-(5,6,7,8-tetrahydro-naphthalen-1-yloxy)-hexahydro-pyrrolo[3,2-b]pyrrol-1-yl]-ethyl}-2-methylamino-propionamide] | 0.1 to 1 | 0.1 to 1 | < 0.1 |
